Results: patent publication US5599806A, “Hydrazino and hydroxyamino-14-β-hydroxyandrostane derivatives active on the cardiovascular system processes for their preparation and pharmaceutical compositions containing same” (Sigma-Tau Industrie Farmaceutiche Riunite S.p.A., priority 1994, dated 1997)
Read-outs that look alike come from different tables or passages of the source.

Experiments:
[1] = target: Na^+, K^+ -ATPase receptor; experiment: displacement of the specific ^3 H-ouabain binding from the Na^+, K^+ -ATPase receptor; conditions: ^3 H-ouabain displacement, purified Na^+
From the text: a) displacement of the specific ^3 H-ouabain binding from the Na^+, K^+ -ATPase receptor purified according to Jorghensen (Jorghensen P., BBA, 1974, 356, 36) and Erdmann (Erdmann E. et al., Arzneim. Forsh., 1984, 34, 1314);

[2] = target: T1, purified Na^+, K^+ -ATPase (Canis lupus familiaris, UniProt P50997); experiment: inhibition of the activity of the purified Na^+, K^+ -ATPase (hydrolysis of ^32 P-ATP); format: biochemical
T1 construct: from tissue
From the text: To test the affinity for the receptor site of the Na^+, K^+ -ATPase and the inhibition of the activity of the enzyme, the following tests were used:
b) inhibition of the activity of the purified Na^+, K^+ -ATPase measured as % of hydrolysis of ^32 P-ATP in the presence and in the absence of the tested compound (Doucet A. et al., Am. J. Physiol., 1986, 251, F851)

[3] = tested on: spontaneous hypertensive rats (MHS); experiment: effect of 5 week-treatment in spontaneous hypertensive rats (MHS) on the development of hypertension (SBP and HR, tail cuff method); format: in vivo, rat; conditions: 0.1 mg/Kg/os daily, 5 weeks, in Methocel 0.5% w/v
Protocol: Systolic blood pressure (SBP) and hear rate (HR) were measured, by the tail cuff method, in young prehypertensive male rats (MHS or SHR) strains before the development of hypertension (4 weeks of age) for recording the basal values of SBP. Groups of 7 rats were formed and subdivided in control and treated groups.
The compound, suspended in Methocel 0.5% (w/v), was orally given daily for at least 5 weeks to the treated groups. The control group received only Methocel.
SBP and HR were measured weekly 6 and 24 hrs after treatment. After 5 weeks of treatment, when hypertension was fully developed in the control group (9 weeks of age), washout was started for at least one week, to verify whether the treatment maintained blood pressure low or reestablished the basal values.
(Takeda K. et al., Japan J. Pharmacol., 1979, 29, 171; Takeda K. et al. Japan J. Pharmacol., 1982, 32, 283; Richer C. et al. Eur. J. Pharmacol, 1978, 47,393).

[4] = hydrolysis of ^32 P-ATP, purified Na^+, K^+ -ATPase, read-out: Inhibitory Activity (-log IC50) (converted)

SMILES | Binding ^3 H-Ouab. Displacement (-log IC50) [1] | IC50 [2, 4] [µM] | IC50 [2] [µM] | SBP ([3]; controls 170 +/- 5.5) | HR ([3]; controls 378 +/- 12.0)
CN(C)CCONCC=C[C@H]1CC[C@]2(O)[C@@H]3CC[C@@H]4C[C@@H](O)CC[C@]4(C)[C@H]3CC[C@]12C [Comp. I-au, 17β-[3-(2-Dimethylaminoethoxyamino)-1-propenyl]-5β-androstane-3β,14β-diol] | 5.9 | 39.8 | – | – | –
CC(NOCCN(C)C)[C@H]1CC[C@]2(O)[C@@H]3CC[C@@H]4C[C@@H](O)CC[C@]4(C)[C@H]3CC[C@]12C (stereo partly drawn) [Comp. I-ar, 20β-(2-Dimethylaminoethoxyamino)-5β-pregnane-3β,14β-diol] | 5.7 | – | 63.1 | – | –
C[C@]12CC[C@H](O)C[C@H]1CC[C@@H]1[C@@H]2CC[C@]2(C)[C@@H](C=CCNNC(=N)N)CC[C@]12O [Comp. I-as, 17β-{3-[2-(Amidino)]hydrazino-1-propenyl}-5β-androstane-3β,14β-diol] | 6.0 | – | 31.6 | – | –
C[C@]12CC[C@H](O)C[C@H]1CC[C@@H]1[C@@H]2CC[C@]2(C)[C@@H](CNNC3=NCCCN3)CC[C@]12O [Comp. I-ad, 17β-[2-(1,4,5,6-Tetrahydro-2-pyrimidinyl)]hydrazinomethyl-5β-androstane-3β,14β-diol] | 6.5 | – | 3.98 | – | –
C[C@]12CC[C@H](O)C[C@H]1CC[C@@H]1[C@@H]2CC[C@]2(C)[C@@H](CNOCCCN)CC[C@]12O [Comp. I-ak, 17β-(3-Aminopropoxyamino)methyl-5β-androstane-3β,14β-diol] | 6.9 | – | 2.51 | – | –
CN(C)CCON(C)C[C@H]1CC[C@]2(O)[C@@H]3CC[C@@H]4C[C@@H](O)CC[C@]4(C)[C@H]3CC[C@]12C [Comp. I-ap, 17β-[N-Methyl-N-(2-dimethylaminoethoxy)amino]methyl-5β-androstane-3β,14β-diol] | 5.0 | 100 | – | – | –
CC(NNC(=N)N)[C@H]1CC[C@]2(O)[C@@H]3CC[C@@H]4C[C@@H](O)CC[C@]4(C)[C@H]3CC[C@]12C (stereo partly drawn) [Comp. I-ag, 20-(2-Amidino)hydrazino-5β-pregnane-3β,14β-diol] | 6.5 | – | 6.31 | – | –
CC(=C[C@H]1CC[C@]2(O)[C@@H]3CC[C@@H]4C[C@@H](O)CC[C@]4(C)[C@H]3CC[C@]12C)CNOCCN(C)C [Comp. I-av, 17β-[3-(2-Dimethylaminoethoxyamino)-2-methyl-1-propenyl]-5β-androstane-3β,14β-diol] | 5.7 | – | 63.1 | – | –
C[C@]12CC[C@H](O)C[C@H]1CC[C@@H]1[C@@H]2CC[C@]2(C)[C@@H](CNOCCN)CC[C@]12O [Comp. I-aj, 17β-(2-Aminoethoxyamino)methyl-5β-androstane-3β,14β-diol] | 7.2 | – | 1 | 150 +/- 4.1 mm Hg | 372 +/- 11.7 beats/min.
C[C@]12CC[C@H](O)C[C@H]1CC[C@@H]1[C@@H]2CC[C@]2(C)[C@@H](CNNC(=N)Nc3ccccc3)CC[C@]12O [Comp. I-af, 17β-[2-(N-Phenylamidino)]hydrazinomethyl-5β-androstane-3β,14β-diol] | 5.0 | – | 63.1 | – | –
C[C@]12CC[C@H](O)C[C@H]1CC[C@@H]1[C@@H]2CC[C@]2(C)[C@@H](CNNC(=N)N)CC[C@]12O [Comp. I-aa, 17β-[2-(Amidino)]hydrazinomethyl-5β-androstane-3β,14β-diol] | 6.9 | – | – | – | –
CN(C)CCONC[C@H]1CC[C@]2(O)[C@@H]3CC[C@@H]4C[C@@H](OCCN)CC[C@]4(C)[C@H]3CC[C@]12C [Comp. I-bc, 3β-(2-Aminoethoxy)-17β-(2-dimethylaminoethoxyamino)methyl-5β-androstane-14β-ol] | 6.1 | 39.8 | – | – | –
CN(C)CCONC[C@@]1(O)CC[C@]2(O)[C@@H]3CC[C@@H]4C[C@@H](O)CC[C@]4(C)[C@H]3CC[C@]12C [Comp. I-ba, 17β-(2-Dimethylaminoethoxyamino)methyl-5β-androstane-3β,14β,17α-diol] | 5.2 | – | 100 | – | –
CN(C)CCONCC[C@H]1CC[C@]2(O)[C@@H]3CC[C@@H]4C[C@@H](O)CC[C@]4(C)[C@H]3CC[C@]12C [Comp. I-ax, 17β-[2-(2-Dimethylaminoethoxyamino)ethyl]-5β-androstane-3β,14β-diol] | 5.7 | 39.8 | – | – | –
C[C@]12CC[C@H](O)C[C@H]1CC[C@@H]1[C@@H]2CC[C@]2(C)[C@@H](CNNC3=NCCN3)CC[C@]12O [Comp. I-ab, 17β-[2-(2-Imidazolin-2-yl)]hydrazinomethyl-5β-androstane-3β,14β-diol] | 6.6 | 3.16 | – | – | –
C[C@]12CC[C@H](O)C[C@H]1CC[C@@H]1[C@@H]2CC[C@]2(C)[C@@H](CNO)CC[C@]12O [Comp. I-ah, 17β-Hydroxyaminomethyl-5β-androstane-3β,14β-diol] | 5.0 | – | 79.4 | – | –
CN(C)CCCCONC[C@H]1CC[C@]2(O)[C@@H]3CC[C@@H]4C[C@@H](O)CC[C@]4(C)[C@H]3CC[C@]12C [Comp. I-ao, 17β-(4-Dimethylaminobutoxyamino)methyl-5β-androstane-3β,14β-diol] | – | – | 79.4 | – | –
CN1CCN=C1NNC[C@H]1CC[C@]2(O)[C@@H]3CC[C@@H]4C[C@@H](O)CC[C@]4(C)[C@H]3CC[C@]12C [Comp. I-ac, 17β-[2-(1-Methyl-2-imidazolin-2-yl)]hydrazinomethyl-5β-androstane-3β,14β-diol] | 6.0 | – | 10 | – | –
CN(C)CCONC[C@H]1CC[C@]2(O)[C@@H]3CC[C@@H]4C[C@@H](OCCN5CCCC5)CC[C@]4(C)[C@H]3CC[C@]12C [Comp. I-bd, 3β-[2-(1-Pyrrolidinyl)ethoxy]-17β-(2-dimethylaminoethoxyamino)methyl-5β-androstane-3β,14β-diol] | 6.2 | – | 31.6 | – | –
C[C@]12CC[C@H](O)C[C@H]1CC[C@@H]1[C@@H]2CC[C@]2(C)[C@@H](CNOCCCCN)CC[C@]12O [Comp. I-al, 17β-(4-Aminobutoxyamino)methyl-5β-androstane-3β,14β-diol] | 6.2 | – | – | – | –
CN(C)CCONC[C@H]1CC[C@]2(O)[C@@H]3CC[C@@H]4C[C@@H](OCCCN5CCCC5)CC[C@]4(C)[C@H]3CC[C@]12C [Comp. I-be, 3β-(3-(1-Pyrrolidinyl)propoxy)-17β-(2-dimethylaminoethoxyamino)methyl-5β-androstane-3β,14β-diol] | 6.0 | – | – | – | –
CONC[C@H]1CC[C@]2(O)[C@@H]3CC[C@@H]4C[C@@H](O)CC[C@]4(C)[C@H]3CC[C@]12C [Comp. I-ai, 17β-Methoxyaminomethyl-5β-androstane-3β,14β-diol] | 5.1 | – | – | – | –
CN(C)CCCONC[C@H]1CC[C@]2(O)[C@@H]3CC[C@@H]4C[C@@H](O)CC[C@]4(C)[C@H]3CC[C@]12C [Comp. I-an, 17β-(3-Dimethylaminopropoxyamino)methyl-5β-androstane-3β,14β-diol] | – | – | 63.1 | – | –
C[C@]12CC[C@H](O)C[C@H]1CC[C@@H]1[C@@H]2CC[C@]2(C)[C@@H](CNOCCNC(=N)N)CC[C@]12O [Comp. I-aq, 17β-(2-Guanidinoethoxyamino)methyl-5β-androstane-3β,14β-diol] | 6.0 | 39.8 | – | – | –
C[C@]12CC[C@H](O)C[C@H]1CC[C@@H]1[C@@H]2CC[C@]2(C)[C@@H](C=CCNOCCN)CC[C@]12O [Comp. I-at, 17β-[3-(2-Aminoethoxyamino)-1-propenyl]-5β-androstane-3β,14β-diol] | 6.7 | – | 10 | – | –
CN(C)CCNC(=N)NNC[C@H]1CC[C@]2(O)[C@@H]3CC[C@@H]4C[C@@H](O)CC[C@]4(C)[C@H]3CC[C@]12C [Comp. I-ae, 17β-{2-[N-(2-Dimethylaminoethyl)amidino]}hydrazinomethyl-5β-androstane-3β,14β-diol] | 5.4 | – | 31.6 | – | –
CN(C)CCONCCC[C@H]1CC[C@]2(O)[C@@H]3CC[C@@H]4C[C@@H](O)CC[C@]4(C)[C@H]3CC[C@]12C [Comp. I-ay, 17β-[3-(2-Dimethylaminoethoxyamino)propyl]-5β-androstane-3β,14β-diol] | 5.8 | 39.8 | – | – | –
